From ChEMBL document CHEMBL5512637, “Development of Membrane-Targeting Fluorescent 2-Phenyl-1H-phenanthro[9,10-d]imidazole-Antimicrobial Peptide Mimic Conjugates against Methicillin-Resistant Staphylococcus aureus” (J Med Chem, 2024)
Converted amounts (≈) assume the structure as drawn.

Tests used:
Staphylococcus aureus [1] = assay: Antibacterial activity against Staphylococcus aureus ATCC 29213 incubated for 16 to 18 hrs CLSI based by microbroth dilution assay; assay type: functional; conditions: time 16-18 hrs
Escherichia coli = assay: Antibacterial activity against Escherichia coli ATCC 25922 incubated for 16 to 18 hrs CLSI based by microbroth dilution assay; assay type: functional; conditions: time 16-18 hrs
Staphylococcus aureus [2] = assay: Antibacterial activity against methicillin-resistant Staphylococcus aureus clinical isolate M-1 incubated for 16 to 18 hrs CLSI based by microbroth dilution assay; assay type: functional; conditions: time 16-18 hrs
Staphylococcus aureus [3] = assay: Antibacterial activity against methicillin-resistant Staphylococcus aureus clinical isolate M-2 incubated for 16 to 18 hrs CLSI based by microbroth dilution assay; assay type: functional; conditions: time 16-18 hrs
Staphylococcus aureus [4] = assay: Antibacterial activity against methicillin-resistant Staphylococcus aureus clinical isolate M-3 incubated for 16 to 18 hrs CLSI based by microbroth dilution assay; assay type: functional; conditions: time 16-18 hrs
Staphylococcus aureus [5] = assay: Antibacterial activity against methicillin-resistant Staphylococcus aureus clinical isolate M-4 incubated for 16 to 18 hrs CLSI based by microbroth dilution assay; assay type: functional; conditions: time 16-18 hrs
Staphylococcus aureus [6] = assay: Antibacterial activity against methicillin-resistant Staphylococcus aureus clinical isolate M-5 incubated for 16 to 18 hrs CLSI based by microbroth dilution assay; assay type: functional; conditions: time 16-18 hrs
Staphylococcus aureus [7] = assay: Antibacterial activity against methicillin-resistant Staphylococcus aureus clinical isolate M-6 incubated for 16 to 18 hrs CLSI based by microbroth dilution assay; assay type: functional; conditions: time 16-18 hrs
Staphylococcus aureus [8] = assay: Antibacterial activity against methicillin-resistant Staphylococcus aureus clinical isolate M-7 incubated for 16 to 18 hrs CLSI based by microbroth dilution assay; assay type: functional; conditions: time 16-18 hrs
Staphylococcus aureus [9] = assay: Antibacterial activity against methicillin-resistant Staphylococcus aureus clinical isolate M-8 incubated for 16 to 18 hrs CLSI based by microbroth dilution assay; assay type: functional; conditions: time 16-18 hrs
Staphylococcus aureus [10] = assay: Antibacterial activity against methicillin-resistant Staphylococcus aureus clinical isolate M-9 incubated for 16 to 18 hrs CLSI based by microbroth dilution assay; assay type: functional; conditions: time 16-18 hrs
Staphylococcus aureus [11] = assay: Antibacterial activity against methicillin-resistant Staphylococcus aureus clinical isolate M-10 incubated for 16 to 18 hrs CLSI based by microbroth dilution assay; assay type: functional; conditions: time 16-18 hrs
[12] = Hemolytic activity in sheep erythrocytes incubated for 1 hr by absorbance based assay; assay type: toxicity, cell-based, Ovis aries, Erythrocyte
[13] = Selectivity index, ratio of HC50 for sheep erythrocytes to MIC for Staphylococcus aureus ATCC 29213; assay type: toxicity; conditions: read-out: Selectivity Index

Structure (SMILES)	MIC (Staphylococcus aureus [1])	MIC (Escherichia coli)	MIC (Staphylococcus aureus [2])	MIC (Staphylococcus aureus [3])	MIC (Staphylococcus aureus [4])	MIC (Staphylococcus aureus [5])	MIC (Staphylococcus aureus [6])	MIC (Staphylococcus aureus [7])	MIC (Staphylococcus aureus [8])	MIC (Staphylococcus aureus [9])	MIC (Staphylococcus aureus [10])	MIC (Staphylococcus aureus [11])	HC50 at 1 h [12]	selectivity ratio [13]
CCCCCCNC(=O)C[N+](C)(C)CCCn1c(-c2ccc(N(C)C)cc2)nc2c3ccccc3c3ccccc3c21.[Br-]	64 µg/mL	> 128 µg/mL	64 µg/mL	128 µg/mL	64 µg/mL	64 µg/mL	64 µg/mL	128 µg/mL	64 µg/mL	128 µg/mL	64 µg/mL	64 µg/mL	> 640 µg/mL	> 10
C[C@@H](O)[C@H]1C(=O)N2C(C(=O)O)=C(S[C@@H]3CN[C@H](C(=O)N(C)C)C3)[C@H](C)[C@H]12 [MEROPENEM]	–	0.063 µg/mL (≈ 0.164 µM)	–	–	–	–	–	–	–	–	–	–	–	–
CCCNC(=O)C[N+](C)(C)CCCCCn1c(-c2ccc(N(C)C)cc2)nc2c3ccccc3c3ccccc3c21.[Br-]	8 µg/mL	64 µg/mL	8 µg/mL	8 µg/mL	4 µg/mL	4 µg/mL	8 µg/mL	8 µg/mL	4 µg/mL	4 µg/mL	4 µg/mL	8 µg/mL	735 µg/mL	91.9
CCN(CC)C(=O)C[N+](C)(C)CCCn1c(-c2ccc(N(C)C)cc2)nc2c3ccccc3c3ccccc3c21.[Br-]	64 µg/mL	> 128 µg/mL	64 µg/mL	64 µg/mL	64 µg/mL	64 µg/mL	64 µg/mL	128 µg/mL	64 µg/mL	128 µg/mL	64 µg/mL	64 µg/mL	> 640 µg/mL	> 10
O=C1C(=O)c2ccccc2-c2ccccc21 [9,10-PHENANTHRENEQUINONE]	4 µg/mL (≈ 19.2 µM)	> 64 µg/mL	2 µg/mL (≈ 9.61 µM)	4 µg/mL (≈ 19.2 µM)	4 µg/mL (≈ 19.2 µM)	4 µg/mL (≈ 19.2 µM)	4 µg/mL (≈ 19.2 µM)	4 µg/mL (≈ 19.2 µM)	4 µg/mL (≈ 19.2 µM)	2 µg/mL (≈ 9.61 µM)	8 µg/mL (≈ 38.4 µM)	2 µg/mL (≈ 9.61 µM)	> 320 µg/mL	> 80
CN(C)c1ccc(-c2nc3c4ccccc4c4ccccc4c3n2CCCCC[N+](C)(C)CC(=O)N2CCSCC2)cc1.[Br-]	4 µg/mL	> 128 µg/mL	8 µg/mL	8 µg/mL	4 µg/mL	4 µg/mL	8 µg/mL	4 µg/mL	4 µg/mL	4 µg/mL	4 µg/mL	8 µg/mL	> 640 µg/mL	> 160
CCCCN(CCCC)C(=O)C[N+](C)(C)CCCn1c(-c2ccc(N(C)C)cc2)nc2c3ccccc3c3ccccc3c21.[Br-]	8 µg/mL	64 µg/mL	4 µg/mL	4 µg/mL	4 µg/mL	4 µg/mL	4 µg/mL	4 µg/mL	4 µg/mL	4 µg/mL	4 µg/mL	4 µg/mL	> 640 µg/mL	> 80
CCNC(=O)C[N+](C)(C)CCCCCn1c(-c2ccc(N(C)C)cc2)nc2c3ccccc3c3ccccc3c21.[Br-]	16 µg/mL	128 µg/mL	32 µg/mL	32 µg/mL	32 µg/mL	32 µg/mL	32 µg/mL	32 µg/mL	16 µg/mL	32 µg/mL	32 µg/mL	32 µg/mL	> 640 µg/mL	> 40
CC(C)CN(CC(C)C)C(=O)C[N+](C)(C)CCCn1c(-c2ccc(N(C)C)cc2)nc2c3ccccc3c3ccccc3c21.[Br-]	8 µg/mL	128 µg/mL	8 µg/mL	16 µg/mL	16 µg/mL	4 µg/mL	8 µg/mL	16 µg/mL	32 µg/mL	16 µg/mL	8 µg/mL	8 µg/mL	> 320 µg/mL	40
CC(C)CN(CC(C)C)C(=O)C[N+](C)(C)CCCCCn1c(-c2ccc(N(C)C)cc2)nc2c3ccccc3c3ccccc3c21.[Br-]	1 µg/mL	> 128 µg/mL	1 µg/mL	1 µg/mL	1 µg/mL	1 µg/mL	2 µg/mL	1 µg/mL	1 µg/mL	1 µg/mL	1 µg/mL	2 µg/mL	247 µg/mL	247
CCCN(CCC)C(=O)C[N+](C)(C)CCCCCn1c(-c2ccc(N(C)C)cc2)nc2c3ccccc3c3ccccc3c21.[Br-]	2 µg/mL	128 µg/mL	4 µg/mL	4 µg/mL	2 µg/mL	2 µg/mL	8 µg/mL	2 µg/mL	2 µg/mL	2 µg/mL	2 µg/mL	4 µg/mL	99.4 µg/mL	49.7
CC(C)N(C(=O)C[N+](C)(C)CCCn1c(-c2ccc(N(C)C)cc2)nc2c3ccccc3c3ccccc3c21)C(C)C.[Br-]	2 µg/mL	> 128 µg/mL	2 µg/mL	2 µg/mL	2 µg/mL	2 µg/mL	2 µg/mL	2 µg/mL	2 µg/mL	4 µg/mL	2 µg/mL	2 µg/mL	68.5 µg/mL	8.6
CCNC(=O)C[N+](C)(C)CCCn1c(-c2ccc(N(C)C)cc2)nc2c3ccccc3c3ccccc3c21.[Br-]	64 µg/mL	> 128 µg/mL	64 µg/mL	64 µg/mL	64 µg/mL	32 µg/mL	64 µg/mL	64 µg/mL	32 µg/mL	64 µg/mL	64 µg/mL	64 µg/mL	> 640 µg/mL	> 10
CCCCCCNC(=O)C[N+](C)(C)CCCCn1c(-c2ccc(N(C)C)cc2)nc2c3ccccc3c3ccccc3c21.[Br-]	2 µg/mL	32 µg/mL	2 µg/mL	2 µg/mL	2 µg/mL	2 µg/mL	2 µg/mL	2 µg/mL	1 µg/mL	1 µg/mL	1 µg/mL	2 µg/mL	353 µg/mL	176
CC(C)N(C(=O)C[N+](C)(C)CCCCCn1c(-c2ccc(N(C)C)cc2)nc2c3ccccc3c3ccccc3c21)C(C)C.[Br-]	4 µg/mL	> 128 µg/mL	4 µg/mL	4 µg/mL	4 µg/mL	4 µg/mL	4 µg/mL	4 µg/mL	4 µg/mL	2 µg/mL	4 µg/mL	4 µg/mL	688 µg/mL	167
CCNC(=O)C[N+](C)(C)CCCCn1c(-c2ccc(N(C)C)cc2)nc2c3ccccc3c3ccccc3c21.[Br-]	16 µg/mL	> 128 µg/mL	16 µg/mL	16 µg/mL	16 µg/mL	16 µg/mL	16 µg/mL	16 µg/mL	16 µg/mL	32 µg/mL	16 µg/mL	16 µg/mL	> 640 µg/mL	> 40
CCCN(CCC)C(=O)C[N+](C)(C)CCCn1c(-c2ccc(N(C)C)cc2)nc2c3ccccc3c3ccccc3c21.[Br-]	32 µg/mL	> 128 µg/mL	32 µg/mL	32 µg/mL	32 µg/mL	32 µg/mL	32 µg/mL	64 µg/mL	16 µg/mL	64 µg/mL	32 µg/mL	32 µg/mL	> 640 µg/mL	> 20
CN(C)c1ccc(-c2nc3c4ccccc4c4ccccc4c3n2CCCC[N+](C)(C)CC(=O)N2CCSCC2)cc1.[Br-]	16 µg/mL	> 128 µg/mL	16 µg/mL	16 µg/mL	16 µg/mL	16 µg/mL	16 µg/mL	16 µg/mL	16 µg/mL	16 µg/mL	16 µg/mL	16 µg/mL	> 640 µg/mL	> 40
CCCNC(=O)C[N+](C)(C)CCCCn1c(-c2ccc(N(C)C)cc2)nc2c3ccccc3c3ccccc3c21.[Br-]	8 µg/mL	64 µg/mL	16 µg/mL	8 µg/mL	8 µg/mL	8 µg/mL	16 µg/mL	8 µg/mL	4 µg/mL	4 µg/mL	8 µg/mL	16 µg/mL	290 µg/mL	36.3
CCCCCNC(=O)C[N+](C)(C)CCCCn1c(-c2ccccc2)nc2c3ccccc3c3ccccc3c21.[Br-]	4 µg/mL	32 µg/mL	2 µg/mL	4 µg/mL	4 µg/mL	2 µg/mL	2 µg/mL	2 µg/mL	2 µg/mL	2 µg/mL	2 µg/mL	2 µg/mL	–	–
